{"source": "patent US20090030075A1", "about": "“Remedy for and Method of Treating Ischemic Cerebral Stroke” (priority 2005, published 2009)", "origin": "cited, not measured here", "test_system": "cerebral infarction lesion", "settings": "FR139317 used together with SUN9216", "data": [{"smiles": "CC(C)C[C@H](NC(=O)N1CCCCCC1)C(=O)N[C@H](Cc1cn(C)c2ccccc12)C(=O)N[C@H](Cc1ccccn1)C(=O)O", "note": "[FR139317]", "values": [{"measurement": "activity of inhibiting development of a cerebral infarction lesion", "result": "this effect disappears"}]}]}
